Measurements published in patent US20260034192A1 (University of Saskatchewan, priority 2022, published 2026).
Where “and” joins values, the source holds several entries; their conditions need not be identical. Equal entries are not always repeated. Square brackets hold non-standard residues; d marks the D form. Peptide text beside a SMILES is read from it. * marks the point of attachment. dPhe(4-NHCONH2) = NC(=O)Nc1ccc(C[C@@H](N)C(=O)O)cc1; Dihydroorotyl(S) = O=C1C[C@@H](C(=O)*)NC(=O)N1; dPhe(4-NH2) = Nc1ccc(C[C@@H](N)C(=O)O)cc1; dPhe(4-Cl) = N[C@H](Cc1ccc(Cl)cc1)C(=O)O; Phe(4-NH2) = Nc1ccc(C[C@H](N)C(=O)O)cc1; d2Nal = N[C@H](Cc1ccc2ccccc2c1)C(=O)O; Lys(iPr) = CC(C)NCCCC[C@H](N)C(=O)O; NMeY = CN[C@@H](Cc1ccc(O)cc1)C(=O)O; d3Pal = N[C@H](Cc1cccnc1)C(=O)O

Tests used:
[1] = test system: GnRH-induced plasma LH levels and ovulation; assay: GnRH challenge in heifers pre-treated with GnRH antagonists: plasma LH and ovulation (Example 10); type: in vivo, cattle; details: for Plasma LH response to GnRH challenge: heifers pre-treated with antagonist 60 minutes before GnRH injection; for Ovulation (Yes/No) within 48 hr of GnRH treatment / Plasma LH concentration at 60 minute, group Mean / Plasma LH concentration at 120 minute, group Mean / Plasma LH concentration at −60 minute, group Mean / Plasma LH concentration at 0 minute, group Mean: heifers; for Ovulation (Yes/No) within 48 hr of GnRH treatment / Dominant follicle diameter (mm) 48 hr after GnRH Injection / Dominant follicle diameter (mm) at GnRH injection: 3 mg antagonist 60 min before GnRH; for Plasma LH concentration at 60 minute, group Mean / Plasma LH concentration at 120 minute, group Mean / Plasma LH concentration at 60 minute / Plasma LH concentration at 120 minute: after GnRH injection; for Plasma LH concentration at −60 minute, group Mean / Plasma LH concentration at −60 minute: time of 3 mg GnRH antagonist injection; for Plasma LH concentration at 0 minute, group Mean / Plasma LH concentration at 0 minute: time of GnRH injection; for Dominant follicle diameter (mm) 48 hr after GnRH Injection / Dominant follicle diameter (mm) at GnRH injection / Plasma LH concentration at 60 minute / Plasma LH concentration at 120 minute / Plasma LH concentration at −60 minute / Plasma LH concentration at 0 minute: individual heifers; for Plasma LH concentration at 60 minute / Plasma LH concentration at 120 minute / Plasma LH concentration at 0 minute: 3 mg antagonist at −60 min; for Plasma LH concentration at −60 minute: 60 mins before GnRH
Description: Methods: Pubertal heifers (n=10) with a functional CL were selected at the Federal University of Santa Maria. Heifers were administered an intramuscular (i/m) injection of prostaglandin F2a analog (PGF; Lutalyse 5 ml or Estrumate 2 ml) to induce CL regression. Heifers were randomly placed into 4 treatment groups at the time of PGF injection: Trt1 (n=2, 3 mg of Abarelix); Trt2 (n=2, 3 mg of Degarelix), Trt3 (n=2, 3 mg of Relugolix) and Trt 4 (n=4; Cetrorelix 3 mg). Heifers were treated with these GnRH antagonists 1.5 days (36 hr) after the PGF injection and the GnRH antagonist treatment time point was defined as −60 mins. Heifers were treated with GnRH ([…] of Fertagyl i/m) at 0 mins to induce ovulation. Jugular venipuncture plasma samples were collected every 60 minutes for 3 hours (from −60 min to 120 minutes, with t=0 min when GnRH is administered). Plasma samples were kept at 4C overnight and LH analysis was performed the next day using a bovine-specific ELISA commercial kit. Transrectal ultrasonography was conducted to the time of GnRH injection (Time 0 hr) and 2 days later (48 hr after GnRH injection) to record the size of dominant follicle and to detect ovulation after treatment.

[2] = test system: bovine pituitary cells; assay: GnRH-induced LH secretion of bovine pituitary cells in vitro (Example 9); type: cell-based; details: for LH conc in medium: 300 μg cetrorelix, 340 μg Degarelix, 300 ug Abarelix, 130 μg Relugolix
Description: Methods: The heads of mature, non-pregnant cows (n=4) were collected from a local abattoir and the pituitary glands were dissected within 60 minutes of slaughter. Immediately following the dissection, the pituitaries were submerged into ice-cold collection medium. The pituitaries were washed 3 times in collection media and the neurohypophysis was dissected from the adenohypophysis. Using a scalpel, the adenohypophysis (anterior pituitary) was sliced into 1 mm×1 mm pieces and transferred to a 50 mL falcon tube containing DMEM medium with 0.5% BSA. The tissue pieces were washed by manually agitating the tube for 1 minute. The tissue pieces were allowed to settle to the bottom of the tube, then the supernatant was discarded. The macerated pieces were transferred to a 15 mL falcon tube with the dissociation medium and incubated at 37° C. for 60 minutes. Every 10 minutes the tube was vortexed for 1 minute to ensure the tissue was completely dissociated. The dissociation media was inactivated using DMEM with 10% SFB then manually agitating the tube for 1 minute. The dissociated cells were placed in a 40 μm cell strainer to remove the undigested tissue and placed into two 15 mL falcon tubes. The cells were centrifuged at 200×g for 10 minutes and the supernatant was discarded. The cells were washed three times by resuspending in DMEM solution with red blood cell lysing buffer followed by centrifuged at 200×g for 10 minutes. Then the cells were washed with DMEM solution and centrifuged at 200×g for 10 minutes. Following the last centrifugation, the cells were resuspended in DMEM, and the trypan blue test was used to determine the cell count and assess viability. DMEM with 10% fetal bovine serum (FBS) was treated with 10% charcoal-dextran and passed through a 0.2 μm filter. The cells were then plated in a 24-well tissue culture plate with a concentration of 1×10^6 viable cells per well and incubated at 37° C. for 24 hours. The following day, to starve the cells, the culture media was replaced with DMEM without FBS and left to incubate for another 24 hours.
Treatments: Based on the results from the pilot study, the selected concentration for Cetrorelix (cetrorelix acetate) was 300 μg. The cetrorelix was dissolved in trace levels of DMSO then dissolved in ultrapure water. To standardize the treatments, the nanomole concentration of each GnRH antagonist were matched with the cetrorelix nanomole concentration. The final concentration used for further experiments were: 300 μg for cetrorelix, 340 μg for Degarelix (Degarelix acetate), 300 ug for Abarelix (Abarelix acetate). Both degarelix and abarelix were dissolved ultrapure water. The equivalent Relugolix nanomole concentration was 130 μg which was dissolved in methanol. Treatment cells were preincubated for 60 minutes with either Cetrorelix, Degarelix, Relugolix or Abarelix. Following the preincubation, the cells were incubated for 30 minutes with either 1 nM or 10 nM of GnRH (Gonadorelin, Fertagyl, Merck Animal Health). GnRH doses were based on pituitary study by Paolicchi et al. 1999). The media were collected and centrifuged at 200×g for 10 minutes to remove the cells. Positive (Control) group was only treated with 1 nM and 10 nM of GnRH to determine the maximum LH secretion. LH concentrations in the culture medium was measured by a commercial bovine specific ELISA kit and reported as mIU/ml of medium.

[3] = target: GnRH receptor on bovine pituitary gonadotrophs (bovine) (UniProt P32236); assay: cell-based or functional assay
[4] = test system: dominant follicle; details: acyline-treated animals, multiple injections from just before ovulation; cited from earlier work
[5] = challenged with 1 nM GnRH 30 minutes after 60 minutes preincubation
[6] = challenged with 10 nM GnRH 30 minutes after 60 minutes preincubation

Sequence of UniProt P32236 (P32236 whole entry): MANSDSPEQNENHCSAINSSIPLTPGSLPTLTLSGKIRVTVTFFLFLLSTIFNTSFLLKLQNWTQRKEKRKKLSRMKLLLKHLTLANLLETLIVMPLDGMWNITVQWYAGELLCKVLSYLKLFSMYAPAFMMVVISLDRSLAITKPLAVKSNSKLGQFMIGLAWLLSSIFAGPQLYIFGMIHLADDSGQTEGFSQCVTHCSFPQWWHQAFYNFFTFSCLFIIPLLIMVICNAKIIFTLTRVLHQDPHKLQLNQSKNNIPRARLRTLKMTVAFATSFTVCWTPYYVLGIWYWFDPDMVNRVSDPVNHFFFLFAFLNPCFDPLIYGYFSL

LH conc (mIU/mL) in medium from bovine pituitary cells in vitro, preincubated 60 min with the antagonist, then challenged 30 min with 1 nM GnRH (control without antagonist: 2.01) [3] [mIU/mL]	LH conc (mIU/mL) in medium from bovine pituitary cells in vitro, preincubated 60 min with the antagonist, then challenged 30 min with 10 nM GnRH (control without antagonist: 2.49) [3] [mIU/mL]	Compound	Plasma LH response to GnRH challenge [1]	Ovulation (Yes/No) within 48 hr of GnRH treatment [1]	Plasma LH concentration at 60 minute, group Mean [1] [mIU/ml]	Plasma LH concentration at 120 minute, group Mean [1] [mIU/ml]	Plasma LH concentration at −60 minute, group Mean [1] [mIU/ml]	Plasma LH concentration at 0 minute, group Mean [1] [mIU/ml]	Dominant follicle diameter (mm) 48 hr after GnRH Injection [1]	Dominant follicle diameter (mm) at GnRH injection [1]	Plasma LH concentration at 60 minute [1]	Plasma LH concentration at 120 minute [1]	Plasma LH concentration at −60 minute [1]	Plasma LH concentration at 0 minute [1]	LH conc in medium [2, 5] [mIU/mL]	LH conc in medium [2, 6] [mIU/mL]	also measured
–	–	CC(=O)N[C@H](Cc1ccc2ccccc2c1)C(=O)N[C@H](Cc1ccc(Cl)cc1)C(=O)N[C@H](Cc1cccnc1)C(=O)N[C@@H](CO)C(=O)N[C@@H](Cc1ccc(NC(=O)[C@@H]2CC(=O)NC(=O)N2)cc1)C(=O)N[C@H](Cc1ccc(NC(N)=O)cc1)C(=O)N[C@@H](CC(C)C)C(=O)N[C@@H](CCCCNC(C)C)C(=O)N1CCC[C@H]1C(=O)N[C@H](C)C(N)=O [Degarelix, N-acetyl-3-(2-naphthyl)-D-alanyl-4-chloro-D-phenylalanyl-3-(3-pyridyl)-D-alanyl-L-seryl-4-((S)-dihydroorotamido)-L-phenylalanyl-4-ureido-D-phenylalanyl-L-leucyl-N6-isopropyl-L-lysyl-L-prolyl-D-alaninamide] (Ac-[d2Nal][dPhe(4-Cl)][d3Pal]S[Phe(4-NH2)](Dihydroorotyl(S))[dPhe(4-NHCONH2)]L[Lys(iPr)]P[dA]-NH2)	did not register an increase in LH	No	8.60	8.62	8.14	8.89	12 mm and 13.2 mm	14 mm and 15.1 mm	4.87 mIU/ml and 12.32 mIU/ml	5.25 mIU/ml and 11.98 mIU/ml	5.54 mIU/ml and 10.74 mIU/ml	5.37 mIU/ml and 12.41 mIU/ml	1.33	1.21	Plasma LH response to GnRH challenge ([1]; listed as degarelix): block the GnRH-induced LH release; Ovulation (Yes/No) within 48 hr of GnRH treatment ([1]; listed as degarelix): prevent GnRH-induced ovulations
–	–	CONC(=O)Nc1ccc(-c2sc3c(c2CN(C)C)c(=O)n(-c2ccc(OC)nn2)c(=O)n3Cc2c(F)cccc2F)cc1 [Relugolix, 1-[4-[1-[(2,6-difluorophenyl)methyl]-5-[(dimethylamino)methyl]-3-(6-methoxypyridazin-3-yl)-2,4-dioxothieno[2,3-d]pyrimidin-6-yl]phenyl]-3-methoxyurea]	did not register an increase in LH	No	13.94	6.97	18.48	19.92	10 mm	9.8 mm and 12.1 mm	22.66 mIU/ml and 5.22 mIU/ml	9.71 mIU/ml and 4.23 mIU/ml	30.96 mIU/ml and 5.99 mIU/ml	33.09 mIU/ml and 6.75 mIU/ml	1.72	1.47	Plasma LH response to GnRH challenge ([1]; listed as relugolix): block the GnRH-induced LH release; Ovulation (Yes/No) within 48 hr of GnRH treatment ([1]; listed as relugolix): prevent GnRH-induced ovulations
–	–	CC(=O)N[C@H](Cc1ccc2ccccc2c1)C(=O)N[C@H](Cc1ccc(Cl)cc1)C(=O)N[C@H](Cc1cccnc1)C(=O)N[C@@H](CO)C(=O)N(C)[C@@H](Cc1ccc(O)cc1)C(=O)N[C@H](CC(N)=O)C(=O)N[C@@H](CC(C)C)C(=O)N[C@@H](CCCCNC(C)C)C(=O)N1CCC[C@H]1C(=O)N[C@H](C)C(N)=O [Abarelix, N-acetyl-3-(2-naphthyl)-D-alanyl-4-chloro-D-phenylalanyl-3-(3-pyridyl)-D-alanyl-L-seryl-N-methyl-L-tyrosyl-D-asparagyl-L-leucyl-N6-isopropyl-L-lysyl-L-prolyl-D-alaninamide] (Ac-[d2Nal][dPhe(4-Cl)][d3Pal]S[NMeY][dN]L[Lys(iPr)]P[dA]-NH2)	did not register an increase in LH	No	10.49	11.23	9.43	11.26	14 mm and 12 mm	14.4 mm and 13.6 mm	8.96 mIU/ml and 12.02 mIU/ml	9.32 mIU/ml and 13.14 mIU/ml	8.65 mIU/ml and 10.21 mIU/ml	8.98 mIU/ml and 13.54 mIU/ml	2.21	2.15	Plasma LH response to GnRH challenge ([1]; listed as abarelix): block the GnRH-induced LH release; Ovulation (Yes/No) within 48 hr of GnRH treatment ([1]; listed as abarelix): prevent GnRH-induced ovulations; Effect on LH suppression ([2]; 1 nM GnRH challenge): no effect; Effect on LH concentration ([2]; 10 nM challenge): modest decrease
1.33	1.21	Degarelix (Degarelix acetate) (peptide)	–	–	–	–	–	–	–	–	–	–	–	–	–	–	–
–	–	CC(=O)Nc1ccc(C[C@H](NC(=O)[C@H](CO)NC(=O)[C@@H](Cc2cccnc2)NC(=O)[C@@H](Cc2ccc(Cl)cc2)NC(=O)[C@@H](Cc2ccc3ccccc3c2)NC(C)=O)C(=O)N[C@H](Cc2ccc(NC(C)=O)cc2)C(=O)N[C@@H](CC(C)C)C(=O)N[C@@H](CCCCNC(C)C)C(=O)N2CCC[C@H]2C(=O)N[C@H](C)C(N)=O)cc1 [acyline, N-acetyl-3-(2-naphthyl)-D-alanyl-4-chloro-D-phenylalanyl-3-(3-pyridyl)-D-alanyl-L-seryl-4-acetamido-L-phenylalanyl-4-acetamido-D-phenylalanyl-L-leucyl-N6-isopropyl-L-lysyl-L-prolyl-D-alaninamide] (Ac-[d2Nal][dPhe(4-Cl)][d3Pal]S[Phe(4-NH2)](Ac)[dPhe(4-NH2)](Ac)L[Lys(iPr)]P[dA]-NH2)	–	–	–	–	–	–	–	–	–	–	–	–	–	–	Maximum diameter of dominant follicle [4]: 7.7 mm
2.21	2.15	Abarelix (Abarelix acetate) (peptide)	–	–	–	–	–	–	–	–	–	–	–	–	–	–	–
